# Assay results as given in publication PMC3236397 (Frontiers in Pharmacology, 2011).
# Key:
# NK3 = NK3 (Homo sapiens, UniProt P29371); test: GPCR cell-based functional assay, Safety and Liability Panel; settings: read-out: Percentage inhibition
# C5aR = C5aR (Homo sapiens, UniProt P21730); test: as above; settings: read-out: Percentage inhibition
# ETB = ETB (Homo sapiens, UniProt P24530); test: as above; settings: read-out: Percentage inhibition
# V1A = V1A (Homo sapiens, UniProt P37288); test: as above; settings: read-out: Percentage inhibition
# CB1 = CB1 (Homo sapiens, UniProt P21554); test: as above; settings: read-out: Percentage inhibition
# SST4 = SST4 (Homo sapiens, UniProt P31391); test: as above; settings: read-out: Percentage inhibition
# VPAC2 = VPAC2 (Homo sapiens, UniProt P41587); test: as above; settings: read-out: Percentage inhibition
# NTR1 = NTR1 (Homo sapiens, UniProt P30989); test: as above; settings: read-out: Percentage inhibition
# CX3CR1 = CX3CR1 (Homo sapiens, UniProt P49238); test: as above; settings: read-out: Percentage inhibition
# GPR109A = GPR109A (Homo sapiens, UniProt Q8TDS4); test: as above; settings: read-out: Percentage inhibition
# CB2 = CB2 (Homo sapiens, UniProt P34972); test: as above; settings: read-out: Percentage inhibition
# Alpha1D = Alpha1D (Homo sapiens, UniProt P25100); test: as above; settings: read-out: Percentage inhibition
# TSH = TSH (Homo sapiens, UniProt P16473); test: as above; settings: read-out: Percentage inhibition
# P2Y1 = P2Y1 (Homo sapiens, UniProt P47900); test: as above; settings: read-out: Percentage inhibition
# OX1 = OX1 (Homo sapiens, UniProt O43613); test: as above; settings: read-out: Percentage inhibition
# D5 = D5 (Homo sapiens, UniProt P21918); test: as above; settings: read-out: Percentage inhibition
# Kv1.5 = Kv1.5 (Homo sapiens, UniProt P22460); test: Cardiac ion channel functional assay, Safety and Liability Panel; type: cell-based
# GnRH/LHRH = GnRH/LHRH (Homo sapiens, UniProt P30968); test: GPCR cell-based functional assay, Safety and Liability Panel; settings: read-out: Percentage inhibition
# LPA3 = LPA3 (Homo sapiens, UniProt Q9UBY5); test: as above; settings: read-out: Percentage inhibition
# BLT1 = BLT1 (Homo sapiens, UniProt Q15722); test: as above; settings: read-out: Percentage inhibition
# B2 = B2 (Homo sapiens, UniProt P30411); test: as above; settings: read-out: Percentage inhibition
# Trypsin-mediated PARs = test: as above; design: species or system human; settings: 10 μM BIRB0796
# CysLT1 = CysLT1 (Homo sapiens, UniProt Q9Y271); test: as above; settings: read-out: Percentage inhibition
# DP = DP (Homo sapiens, UniProt Q13258); test: as above; settings: read-out: Percentage inhibition
# PAF = PAF (Homo sapiens, UniProt P25105); test: as above; settings: read-out: Percentage inhibition
# OPRK1 = OPRK1 (Homo sapiens, UniProt P41145); test: as above; settings: read-out: Percentage inhibition
# PRP = PRP (Homo sapiens, UniProt P49683); test: as above; settings: read-out: Percentage inhibition
# EP2 = EP2 (Homo sapiens, UniProt P43116); test: as above; settings: read-out: Percentage inhibition
# 5-HT2A = 5-HT2A (Homo sapiens, UniProt P28223); test: as above; settings: read-out: Percentage inhibition
# Motilin receptor = Motilin receptor (Homo sapiens, UniProt O43193); test: as above; settings: read-out: Percentage inhibition
# A1 = A1 (Homo sapiens, UniProt P30542); test: as above; settings: read-out: Percentage inhibition
# S1P3 = S1P3 (Homo sapiens, UniProt Q99500); test: as above; settings: read-out: Percentage inhibition
# OPRM1 = OPRM1 (Homo sapiens, UniProt P35372); test: as above; settings: OPRM1, read-out: Percentage inhibition
# hERG = hERG (Homo sapiens, UniProt Q12809); test: in vitro
# PTH1 = PTH1 (Homo sapiens, UniProt Q03431); test: GPCR cell-based functional assay, Safety and Liability Panel; settings: read-out: Percentage inhibition
# NMU1 = NMU1 (Homo sapiens, UniProt Q9HB89); test: as above; settings: read-out: Percentage inhibition
# Alpha2A = Alpha2A (Homo sapiens, UniProt P08913); test: as above; settings: read-out: Percentage inhibition
# CXCR1 = CXCR1 (Homo sapiens, UniProt P25024); test: as above; settings: read-out: Percentage inhibition
# 5-HT2B = 5-HT2B (Homo sapiens, UniProt P41595); test: as above; settings: read-out: Percentage inhibition
# IP1 = IP1 (Homo sapiens, UniProt P43119); test: as above; settings: read-out: Percentage inhibition
# AT1 = AT1 (Homo sapiens, UniProt P30556); test: as above; settings: read-out: Percentage inhibition
# BB2 = BB2 (Homo sapiens, UniProt P30550); test: as above; settings: read-out: Percentage inhibition
# H1 = H1 (Homo sapiens, UniProt P35367); test: as above; settings: read-out: Percentage inhibition
# M3 = M3 (Homo sapiens, UniProt P20309); test: as above; settings: read-out: Percentage inhibition
# CRF1 = CRF1 (Homo sapiens, UniProt P34998); test: as above; settings: read-out: Percentage inhibition
# Beta 2 = Beta 2 (Homo sapiens, UniProt P07550); test: as above; settings: read-out: Percentage inhibition
# EP3 = EP3 (Homo sapiens, UniProt P43115); test: as above; settings: read-out: Percentage inhibition
# CCR1 = CCR1 (Homo sapiens, UniProt P32246); test: as above; settings: read-out: Percentage inhibition
# M1 = M1 (Homo sapiens, UniProt P11229); test: as above; settings: read-out: Percentage inhibition
# ETA = ETA (Homo sapiens, UniProt P25101); test: as above; settings: read-out: Percentage inhibition
# GAL1 = GAL1 (Homo sapiens, UniProt P47211); test: as above; settings: read-out: Percentage inhibition
# TP = TP (Homo sapiens, UniProt P21731); test: as above; settings: read-out: Percentage inhibition
# 5-HT1A = 5-HT1A (Homo sapiens, UniProt P08908); test: as above; settings: read-out: Percentage inhibition
# 5-HT2C = 5-HT2C (Homo sapiens, UniProt P28335); test: as above; settings: read-out: Percentage inhibition
# FP = FP (Homo sapiens, UniProt P43088); test: as above; settings: read-out: Percentage inhibition
# H2 = H2 (Homo sapiens, UniProt P25021); test: as above; settings: read-out: Percentage inhibition
# VPAC1 = VPAC1 (Homo sapiens, UniProt P32241); test: as above; settings: read-out: Percentage inhibition
# MC5 = MC5 (Homo sapiens, UniProt P33032); test: as above; settings: read-out: Percentage inhibition
# OPRD1 = OPRD1 (Homo sapiens, UniProt P41143); test: as above; settings: read-out: Percentage inhibition
# Alpha1A = Alpha1A (Homo sapiens, UniProt P35348); test: as above; settings: read-out: Percentage inhibition
# UT/GPR14 = UT/GPR14 (Homo sapiens, UniProt Q9UKP6); test: as above; settings: read-out: Percentage inhibition
# D1 = D1 (Homo sapiens, UniProt P21728); test: as above; settings: read-out: Percentage inhibition
# CCK2 = CCK2 (Homo sapiens, UniProt P32239); test: as above; settings: read-out: Percentage inhibition
# NK1 = NK1 (Homo sapiens, UniProt P25103); test: as above; settings: read-out: Percentage inhibition
# V2 = V2 (Homo sapiens, UniProt P30518); test: as above; settings: read-out: Percentage inhibition
# PAC1 long isoform = test: as above; design: species or system human; settings: 10 μM BIRB0796
# CCR2B = CCR2B (Homo sapiens, UniProt P41597); test: as above; settings: read-out: Percentage inhibition
# Beta 1 = Beta 1 (Homo sapiens, UniProt P08588); test: as above; settings: read-out: Percentage inhibition
# D2L = D2L (Homo sapiens, UniProt P14416); test: as above; settings: read-out: Percentage inhibition
# H3 = H3 (Homo sapiens, UniProt Q9Y5N1); test: as above; settings: read-out: Percentage inhibition
# M2 = M2 (Homo sapiens, UniProt P08172); test: as above; settings: read-out: Percentage inhibition
# Y2 = Y2 (Homo sapiens, UniProt P49146); test: as above; settings: read-out: Percentage inhibition
# A3 = A3 (Homo sapiens, UniProt P0DMS8); test: as above; settings: read-out: Percentage inhibition
# PK1 = PK1 (Homo sapiens, UniProt Q8TCW9); test: as above; settings: PK-1, read-out: Percentage inhibition
# LPA1 = LPA1 (Homo sapiens, UniProt Q92633); test: as above; settings: read-out: Percentage inhibition
# CGRP1 = CGRP1 (Homo sapiens, UniProt O60894+Q16602); test: as above; settings: read-out: Percentage inhibition
# OT = OT (Homo sapiens, UniProt P30559); test: as above; settings: read-out: Percentage inhibition
# FPR1 = FPR1 (Homo sapiens, UniProt P21462); test: as above; settings: read-out: Percentage inhibition
# Nav1.6 = Nav1.6 (Homo sapiens, UniProt Q9UQD0); test: IonWorks Quattro 2-pulse inactivated-state protocol; type: cell-based; settings: Predicted IC50 potency values Nav1.6 P1, Pulse 1, 2-pulse protocol
# Sequence of GAL1 (P47211 whole entry): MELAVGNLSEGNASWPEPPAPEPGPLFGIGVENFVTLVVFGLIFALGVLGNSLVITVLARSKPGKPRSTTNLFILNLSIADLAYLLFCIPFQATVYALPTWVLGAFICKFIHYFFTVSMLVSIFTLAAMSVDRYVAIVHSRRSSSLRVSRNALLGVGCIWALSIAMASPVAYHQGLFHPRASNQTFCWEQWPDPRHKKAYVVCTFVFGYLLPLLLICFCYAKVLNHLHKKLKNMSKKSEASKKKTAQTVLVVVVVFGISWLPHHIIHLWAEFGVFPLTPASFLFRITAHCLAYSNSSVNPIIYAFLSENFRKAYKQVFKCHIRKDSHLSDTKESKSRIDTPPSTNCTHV
# Sequence of CCR1 (P32246 whole entry): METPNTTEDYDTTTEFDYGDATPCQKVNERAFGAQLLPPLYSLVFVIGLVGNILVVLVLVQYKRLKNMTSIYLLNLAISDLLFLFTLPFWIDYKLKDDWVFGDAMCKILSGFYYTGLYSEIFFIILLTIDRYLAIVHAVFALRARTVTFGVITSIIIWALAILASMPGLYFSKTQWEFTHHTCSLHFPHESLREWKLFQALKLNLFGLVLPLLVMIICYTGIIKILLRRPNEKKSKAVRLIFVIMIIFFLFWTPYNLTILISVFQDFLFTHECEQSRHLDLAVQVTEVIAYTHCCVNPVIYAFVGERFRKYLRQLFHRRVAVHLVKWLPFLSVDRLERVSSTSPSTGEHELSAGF
# Sequence of D2L (P14416 whole entry): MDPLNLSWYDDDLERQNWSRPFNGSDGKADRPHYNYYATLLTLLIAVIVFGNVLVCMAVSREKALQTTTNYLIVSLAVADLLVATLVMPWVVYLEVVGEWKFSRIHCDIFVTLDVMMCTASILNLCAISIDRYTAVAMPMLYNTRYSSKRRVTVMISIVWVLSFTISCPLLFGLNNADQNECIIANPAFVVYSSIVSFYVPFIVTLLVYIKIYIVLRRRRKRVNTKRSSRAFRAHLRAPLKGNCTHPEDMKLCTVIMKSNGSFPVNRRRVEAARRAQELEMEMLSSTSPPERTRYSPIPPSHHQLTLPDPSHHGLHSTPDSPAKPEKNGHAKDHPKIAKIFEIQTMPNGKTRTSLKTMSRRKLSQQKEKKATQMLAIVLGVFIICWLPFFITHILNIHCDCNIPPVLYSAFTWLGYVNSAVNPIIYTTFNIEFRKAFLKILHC
# Sequence of OPRM1 (P35372 whole entry): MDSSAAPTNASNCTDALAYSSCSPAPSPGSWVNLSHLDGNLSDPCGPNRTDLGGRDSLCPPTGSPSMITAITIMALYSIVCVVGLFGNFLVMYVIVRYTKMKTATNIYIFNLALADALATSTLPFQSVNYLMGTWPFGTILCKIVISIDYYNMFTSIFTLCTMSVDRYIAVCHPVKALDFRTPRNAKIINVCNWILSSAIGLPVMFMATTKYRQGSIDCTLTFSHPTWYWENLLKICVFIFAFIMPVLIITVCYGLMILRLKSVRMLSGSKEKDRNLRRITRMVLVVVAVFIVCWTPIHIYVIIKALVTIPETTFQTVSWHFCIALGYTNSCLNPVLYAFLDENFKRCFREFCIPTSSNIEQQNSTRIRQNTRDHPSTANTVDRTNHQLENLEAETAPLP
# Sequence of CCR2B (P41597 1-360 isoform P41597-2): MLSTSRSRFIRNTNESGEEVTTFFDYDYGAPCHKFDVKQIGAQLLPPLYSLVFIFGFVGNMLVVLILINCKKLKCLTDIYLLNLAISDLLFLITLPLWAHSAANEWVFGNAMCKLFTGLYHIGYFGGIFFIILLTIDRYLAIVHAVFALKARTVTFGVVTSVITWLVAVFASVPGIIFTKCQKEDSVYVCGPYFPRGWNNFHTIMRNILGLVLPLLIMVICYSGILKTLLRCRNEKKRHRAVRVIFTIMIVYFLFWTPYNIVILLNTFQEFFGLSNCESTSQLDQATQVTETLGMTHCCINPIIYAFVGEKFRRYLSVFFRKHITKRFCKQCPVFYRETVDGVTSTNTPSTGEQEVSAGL
# Sequence of P2Y1 (P47900 whole entry): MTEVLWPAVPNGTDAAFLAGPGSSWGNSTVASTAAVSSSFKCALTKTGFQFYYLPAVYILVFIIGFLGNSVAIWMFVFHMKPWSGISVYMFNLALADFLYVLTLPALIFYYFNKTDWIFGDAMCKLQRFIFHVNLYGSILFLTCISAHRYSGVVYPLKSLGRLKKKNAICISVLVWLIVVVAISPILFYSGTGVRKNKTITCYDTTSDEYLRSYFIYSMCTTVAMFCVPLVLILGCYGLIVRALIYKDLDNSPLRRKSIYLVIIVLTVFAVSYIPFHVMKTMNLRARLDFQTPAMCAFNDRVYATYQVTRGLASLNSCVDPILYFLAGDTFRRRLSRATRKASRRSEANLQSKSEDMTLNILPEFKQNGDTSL
# Sequence of CRF1 (P34998 24-415): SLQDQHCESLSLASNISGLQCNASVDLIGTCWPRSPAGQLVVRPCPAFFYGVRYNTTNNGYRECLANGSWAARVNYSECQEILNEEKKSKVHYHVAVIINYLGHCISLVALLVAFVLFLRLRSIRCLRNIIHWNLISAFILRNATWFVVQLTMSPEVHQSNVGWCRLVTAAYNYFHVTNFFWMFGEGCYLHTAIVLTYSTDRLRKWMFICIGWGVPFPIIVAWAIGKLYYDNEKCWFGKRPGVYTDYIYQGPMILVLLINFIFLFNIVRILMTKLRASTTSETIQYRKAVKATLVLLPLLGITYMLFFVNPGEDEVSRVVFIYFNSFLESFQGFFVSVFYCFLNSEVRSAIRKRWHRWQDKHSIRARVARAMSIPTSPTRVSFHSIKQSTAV
# Sequence of PAF (P25105 whole entry): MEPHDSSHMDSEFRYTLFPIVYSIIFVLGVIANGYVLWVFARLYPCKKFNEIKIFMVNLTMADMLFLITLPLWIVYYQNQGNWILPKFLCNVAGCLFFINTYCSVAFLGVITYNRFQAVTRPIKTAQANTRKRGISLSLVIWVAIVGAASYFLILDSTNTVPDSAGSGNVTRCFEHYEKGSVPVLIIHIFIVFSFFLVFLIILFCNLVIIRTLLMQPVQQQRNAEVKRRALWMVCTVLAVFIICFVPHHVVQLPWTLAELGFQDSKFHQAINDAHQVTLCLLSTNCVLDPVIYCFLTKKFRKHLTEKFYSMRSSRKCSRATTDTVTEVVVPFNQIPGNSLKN
# Sequence of Alpha1D (P25100 whole entry): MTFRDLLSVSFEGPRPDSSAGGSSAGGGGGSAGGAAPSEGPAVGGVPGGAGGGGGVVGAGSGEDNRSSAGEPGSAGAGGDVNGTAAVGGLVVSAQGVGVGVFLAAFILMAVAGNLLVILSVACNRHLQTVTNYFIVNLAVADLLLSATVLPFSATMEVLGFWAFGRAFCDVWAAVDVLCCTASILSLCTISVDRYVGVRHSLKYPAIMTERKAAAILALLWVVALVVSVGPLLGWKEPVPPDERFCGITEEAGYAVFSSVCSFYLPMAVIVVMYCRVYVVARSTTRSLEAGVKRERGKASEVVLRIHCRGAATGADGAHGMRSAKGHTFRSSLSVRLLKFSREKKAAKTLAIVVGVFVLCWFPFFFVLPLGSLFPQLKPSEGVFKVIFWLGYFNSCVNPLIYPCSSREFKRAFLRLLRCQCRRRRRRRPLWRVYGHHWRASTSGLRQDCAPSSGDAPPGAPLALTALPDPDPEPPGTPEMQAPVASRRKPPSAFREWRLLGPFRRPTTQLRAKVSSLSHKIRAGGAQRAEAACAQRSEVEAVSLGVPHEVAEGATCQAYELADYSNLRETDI
# Sequence of CB1 (P21554 whole entry): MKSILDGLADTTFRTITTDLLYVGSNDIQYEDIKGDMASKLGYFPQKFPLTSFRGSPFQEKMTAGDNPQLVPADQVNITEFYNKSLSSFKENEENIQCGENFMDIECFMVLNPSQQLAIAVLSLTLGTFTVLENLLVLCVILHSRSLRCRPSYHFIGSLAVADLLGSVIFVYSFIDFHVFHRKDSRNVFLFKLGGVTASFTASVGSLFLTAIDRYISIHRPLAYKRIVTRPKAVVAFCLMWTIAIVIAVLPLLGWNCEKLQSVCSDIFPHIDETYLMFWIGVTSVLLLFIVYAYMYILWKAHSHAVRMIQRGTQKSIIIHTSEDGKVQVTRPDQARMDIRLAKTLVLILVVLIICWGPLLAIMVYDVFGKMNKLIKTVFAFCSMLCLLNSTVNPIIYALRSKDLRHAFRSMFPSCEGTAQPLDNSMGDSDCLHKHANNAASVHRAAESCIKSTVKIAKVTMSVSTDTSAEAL
# Sequence of EP2 (P43116 whole entry): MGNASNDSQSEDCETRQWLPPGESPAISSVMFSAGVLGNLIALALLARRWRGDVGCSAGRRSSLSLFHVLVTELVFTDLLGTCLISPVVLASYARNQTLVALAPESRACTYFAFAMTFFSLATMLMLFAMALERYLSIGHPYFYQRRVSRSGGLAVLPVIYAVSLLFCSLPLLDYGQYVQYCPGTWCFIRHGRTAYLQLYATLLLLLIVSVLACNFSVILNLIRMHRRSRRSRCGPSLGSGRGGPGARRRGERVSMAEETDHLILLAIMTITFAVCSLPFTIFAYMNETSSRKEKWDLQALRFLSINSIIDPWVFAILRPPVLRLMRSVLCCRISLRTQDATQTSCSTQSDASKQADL
# Sequence of Alpha2A (P08913 whole entry): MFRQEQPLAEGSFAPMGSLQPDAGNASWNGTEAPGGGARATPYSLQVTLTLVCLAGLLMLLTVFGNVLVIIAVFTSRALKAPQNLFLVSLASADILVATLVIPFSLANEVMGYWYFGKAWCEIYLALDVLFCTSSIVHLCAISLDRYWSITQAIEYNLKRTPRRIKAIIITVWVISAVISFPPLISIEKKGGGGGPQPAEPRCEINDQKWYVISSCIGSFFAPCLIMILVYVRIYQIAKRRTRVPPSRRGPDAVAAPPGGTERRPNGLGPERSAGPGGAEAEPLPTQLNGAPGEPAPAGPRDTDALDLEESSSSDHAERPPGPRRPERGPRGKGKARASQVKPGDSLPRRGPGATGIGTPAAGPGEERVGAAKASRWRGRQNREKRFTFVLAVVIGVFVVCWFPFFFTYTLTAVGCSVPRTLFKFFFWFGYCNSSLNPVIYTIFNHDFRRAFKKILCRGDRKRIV
smiles,measurement,setting,value
Cc1ccc(-n2nc(C(C)(C)C)cc2NC(=O)Nc2ccc(OCCN3CCOCC3)c3ccccc23)cc1 [BIRB0796],inhibition at 10 µM,NK3,17.5%
same,inhibition at 10 µM,C5aR,-5.5%
same,inhibition at 10 µM,ETB,11%
same,inhibition at 10 µM,V1A,2%
same,inhibition at 10 µM,CB1,9%
same,inhibition at 10 µM,SST4,-5.5%
same,inhibition at 10 µM,VPAC2,-4%
same,inhibition at 10 µM,NTR1,-12%
same,inhibition at 10 µM,CX3CR1,-12%
same,inhibition at 10 µM,GPR109A,-1%
same,inhibition at 10 µM,CB2,80%
same,inhibition at 10 µM,Alpha1D,3.5%
same,inhibition at 10 µM,TSH,-4%
same,inhibition at 10 µM,P2Y1,10.5%
same,inhibition at 10 µM,OX1,12%
same,inhibition at 10 µM,D5,14%
same,inhibition at 10 µM,Kv1.5,≥ 50%
same,inhibition at 10 µM,GnRH/LHRH,-20.5%
same,inhibition at 10 µM,LPA3,5%
same,inhibition at 10 µM,BLT1,8.5%
same,inhibition at 10 µM,B2,-4.5%
same,Percentage inhibition,Trypsin-mediated PARs,9.0%
same,inhibition at 10 µM,CysLT1,2%
same,inhibition at 10 µM,DP,12.5%
same,inhibition at 10 µM,PAF,19.5%
same,inhibition at 10 µM,OPRK1,-19%
same,inhibition at 10 µM,PRP,3%
same,inhibition at 10 µM,EP2,2.5%
same,inhibition at 10 µM,5-HT2A,99.5%
same,inhibition at 10 µM,Motilin receptor,94.5%
same,inhibition at 10 µM,A1,19.5%
same,inhibition at 10 µM,S1P3,-1.5%
same,inhibition at 10 µM,OPRM1,-2.5%
same,inhibition at 10 µM,hERG,≥ 50%
same,inhibition at 10 µM,PTH1,0%
same,inhibition at 10 µM,NMU1,22.5%
same,inhibition at 10 µM,Alpha2A,-4%
same,inhibition at 10 µM,CXCR1,-1.5%
same,inhibition at 10 µM,5-HT2B,18.5%
same,inhibition at 10 µM,IP1,12.5%
same,inhibition at 10 µM,AT1,-2.5%
same,inhibition at 10 µM,BB2,0%
same,inhibition at 10 µM,H1,-1.5%
same,inhibition at 10 µM,M3,5%
same,inhibition at 10 µM,CRF1,13%
same,inhibition at 10 µM,Beta 2,-9.5%
same,inhibition at 10 µM,EP3,7.5%
same,inhibition at 10 µM,CCR1,-6%
same,inhibition at 10 µM,M1,46.5%
same,inhibition at 10 µM,ETA,-4%
same,inhibition at 10 µM,GAL1,-1.5%
same,inhibition at 10 µM,TP,32%
same,inhibition at 10 µM,5-HT1A,31%
same,inhibition at 10 µM,5-HT2C,5.5%
same,inhibition at 10 µM,FP,20.5%
same,inhibition at 10 µM,H2,-5.5%
same,inhibition at 10 µM,VPAC1,-2%
same,inhibition at 10 µM,MC5,2%
same,inhibition at 10 µM,OPRD1,8.5%
same,inhibition at 10 µM,Alpha1A,6%
same,inhibition at 10 µM,UT/GPR14,18.5%
same,inhibition at 10 µM,D1,23%
same,inhibition at 10 µM,CCK2,2%
same,inhibition at 10 µM,NK1,12%
same,inhibition at 10 µM,V2,1%
same,Percentage inhibition,PAC1 long isoform,3.5%
same,inhibition at 10 µM,CCR2B,0%
same,inhibition at 10 µM,Beta 1,-6%
same,inhibition at 10 µM,D2L,53.5%
same,inhibition at 10 µM,H3,91.5%
same,inhibition at 10 µM,M2,34.5%
same,inhibition at 10 µM,Y2,-13.5%
same,inhibition at 10 µM,A3,20.5%
same,inhibition at 10 µM,PK1,-6.5%
same,inhibition at 10 µM,LPA1,6.5%
same,inhibition at 10 µM,CGRP1,0%
same,inhibition at 10 µM,OT,12.5%
same,inhibition at 10 µM,FPR1,-4.5%
CCN(CC)CC(=O)Nc1c(C)cccc1C [Lidocaine],IC50,Nav1.6,270 µM
